Measured values as given in ChEMBL document CHEMBL5696442, “Discovery of type II inhibitors of TGFβ-activated kinase 1 (TAK1) and mitogen-activated protein kinase kinase kinase kinase 2 (MAP4K2)” (J Med Chem, 2015).

Key:
Format in all cases: cell-based
[1] = molecular target: Mitogen-activated protein kinase 14 (Homo sapiens, UniProt Q16539); test: Inhibition of p38 alpha in human A-375 cells at 5 uM by KiNativ Profiling analysis relative to control
[2] = molecular target: T1, Serine/threonine-protein kinase LATS2 (Homo sapiens) (UniProt Q9NRM7); test: Inhibition of LATS2 Lys2 labeling site in human A-375 cells at 0.5 uM by KiNativ Profiling analysis relative to control
T1 sequence (whole entry): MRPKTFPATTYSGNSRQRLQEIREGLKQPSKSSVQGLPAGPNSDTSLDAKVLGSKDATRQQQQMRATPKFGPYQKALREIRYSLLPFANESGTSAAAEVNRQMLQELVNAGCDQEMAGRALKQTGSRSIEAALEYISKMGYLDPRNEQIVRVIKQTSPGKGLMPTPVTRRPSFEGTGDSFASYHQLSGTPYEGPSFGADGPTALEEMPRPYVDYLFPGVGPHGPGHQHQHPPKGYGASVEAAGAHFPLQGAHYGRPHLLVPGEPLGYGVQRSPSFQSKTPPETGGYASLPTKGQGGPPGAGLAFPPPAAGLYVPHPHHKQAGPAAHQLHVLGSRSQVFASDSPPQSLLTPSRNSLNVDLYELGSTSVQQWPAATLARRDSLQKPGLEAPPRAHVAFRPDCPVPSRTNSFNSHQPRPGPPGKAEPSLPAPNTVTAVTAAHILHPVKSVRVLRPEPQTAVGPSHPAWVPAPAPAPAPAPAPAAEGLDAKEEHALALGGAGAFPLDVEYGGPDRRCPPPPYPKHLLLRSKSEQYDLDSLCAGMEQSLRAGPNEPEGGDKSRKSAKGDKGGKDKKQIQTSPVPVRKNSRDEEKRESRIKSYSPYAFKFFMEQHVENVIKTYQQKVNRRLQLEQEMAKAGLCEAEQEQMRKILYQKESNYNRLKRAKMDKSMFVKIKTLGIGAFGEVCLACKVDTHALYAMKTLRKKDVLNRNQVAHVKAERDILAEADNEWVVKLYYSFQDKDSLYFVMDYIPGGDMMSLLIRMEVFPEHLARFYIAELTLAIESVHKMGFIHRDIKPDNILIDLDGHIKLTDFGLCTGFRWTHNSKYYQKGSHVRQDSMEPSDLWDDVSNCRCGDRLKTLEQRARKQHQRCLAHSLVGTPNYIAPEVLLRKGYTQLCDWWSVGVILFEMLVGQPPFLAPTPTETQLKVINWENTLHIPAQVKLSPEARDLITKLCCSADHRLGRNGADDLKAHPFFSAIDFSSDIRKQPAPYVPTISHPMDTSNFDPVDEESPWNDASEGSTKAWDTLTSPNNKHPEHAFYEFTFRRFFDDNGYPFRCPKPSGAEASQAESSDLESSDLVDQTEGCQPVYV

[3] = molecular target: T2, Serine/threonine-protein kinase TAO3 (Homo sapiens) (UniProt Q9H2K8); test: Inhibition of TAO3 Lys2 labeling site in human A-375 cells at 0.5 uM by KiNativ Profiling analysis relative to control
T2 sequence (whole entry): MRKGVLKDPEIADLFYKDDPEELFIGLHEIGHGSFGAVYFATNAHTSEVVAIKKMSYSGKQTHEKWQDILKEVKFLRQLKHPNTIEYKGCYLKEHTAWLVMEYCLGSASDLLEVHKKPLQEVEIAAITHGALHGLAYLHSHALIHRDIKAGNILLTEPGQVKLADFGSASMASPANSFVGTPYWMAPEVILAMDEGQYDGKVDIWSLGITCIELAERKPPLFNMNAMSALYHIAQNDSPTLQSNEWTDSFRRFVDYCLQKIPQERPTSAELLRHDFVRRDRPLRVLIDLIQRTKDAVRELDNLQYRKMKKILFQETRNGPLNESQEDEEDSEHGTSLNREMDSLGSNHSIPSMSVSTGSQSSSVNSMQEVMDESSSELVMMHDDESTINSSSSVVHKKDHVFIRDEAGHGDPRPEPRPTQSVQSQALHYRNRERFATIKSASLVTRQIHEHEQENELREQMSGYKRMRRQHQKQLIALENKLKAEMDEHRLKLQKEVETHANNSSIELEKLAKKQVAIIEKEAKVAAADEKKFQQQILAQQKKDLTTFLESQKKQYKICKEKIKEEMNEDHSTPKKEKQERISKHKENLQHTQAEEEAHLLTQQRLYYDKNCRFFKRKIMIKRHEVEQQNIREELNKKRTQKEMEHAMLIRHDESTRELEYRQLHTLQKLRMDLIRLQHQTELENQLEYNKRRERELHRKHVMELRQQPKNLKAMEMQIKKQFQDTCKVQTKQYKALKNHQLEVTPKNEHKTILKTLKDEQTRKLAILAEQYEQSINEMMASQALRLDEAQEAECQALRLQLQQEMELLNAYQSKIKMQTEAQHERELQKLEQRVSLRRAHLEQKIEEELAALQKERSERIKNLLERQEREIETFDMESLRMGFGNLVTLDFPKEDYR

[4] = molecular target: Tyrosine-protein kinase Fer (Homo sapiens, UniProt P16591); test: Inhibition of FER Lys1 labeling site harbouring TSVAVKTCKEDLPQELKin human A-375 cells at 0.05 uM by KiNativ Profiling analysis relative to control
Sequence of Tyrosine-protein kinase Fer (P16591 whole entry, looked up): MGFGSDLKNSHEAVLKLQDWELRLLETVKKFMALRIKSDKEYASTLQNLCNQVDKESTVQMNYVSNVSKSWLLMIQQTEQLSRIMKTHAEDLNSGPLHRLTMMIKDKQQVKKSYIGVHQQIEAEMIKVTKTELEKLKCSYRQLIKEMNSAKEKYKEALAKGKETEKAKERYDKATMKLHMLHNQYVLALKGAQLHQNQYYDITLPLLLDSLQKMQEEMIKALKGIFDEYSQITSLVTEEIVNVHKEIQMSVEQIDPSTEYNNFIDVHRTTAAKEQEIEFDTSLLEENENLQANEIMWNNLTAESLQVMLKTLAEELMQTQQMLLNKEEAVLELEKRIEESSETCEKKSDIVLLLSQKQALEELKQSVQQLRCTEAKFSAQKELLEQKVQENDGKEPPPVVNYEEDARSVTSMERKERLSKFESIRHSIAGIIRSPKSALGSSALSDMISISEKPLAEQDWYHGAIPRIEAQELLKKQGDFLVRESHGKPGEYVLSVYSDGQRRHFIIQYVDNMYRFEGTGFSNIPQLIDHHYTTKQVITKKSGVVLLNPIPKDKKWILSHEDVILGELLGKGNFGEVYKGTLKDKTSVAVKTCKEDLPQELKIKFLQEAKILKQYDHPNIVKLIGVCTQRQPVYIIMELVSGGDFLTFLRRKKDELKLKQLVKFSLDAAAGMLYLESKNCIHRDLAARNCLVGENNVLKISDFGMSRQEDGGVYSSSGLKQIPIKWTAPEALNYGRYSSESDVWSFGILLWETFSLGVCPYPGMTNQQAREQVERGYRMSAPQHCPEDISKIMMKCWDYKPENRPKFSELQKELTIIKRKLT

[5] = molecular target: T1, Serine/threonine-protein kinase LATS2 (Homo sapiens); test: Inhibition of LATS2 Lys2 labeling site in human A-375 cells at 0.05 uM by KiNativ Profiling analysis relative to control

Sequence of Mitogen-activated protein kinase 14 (Q16539 whole entry): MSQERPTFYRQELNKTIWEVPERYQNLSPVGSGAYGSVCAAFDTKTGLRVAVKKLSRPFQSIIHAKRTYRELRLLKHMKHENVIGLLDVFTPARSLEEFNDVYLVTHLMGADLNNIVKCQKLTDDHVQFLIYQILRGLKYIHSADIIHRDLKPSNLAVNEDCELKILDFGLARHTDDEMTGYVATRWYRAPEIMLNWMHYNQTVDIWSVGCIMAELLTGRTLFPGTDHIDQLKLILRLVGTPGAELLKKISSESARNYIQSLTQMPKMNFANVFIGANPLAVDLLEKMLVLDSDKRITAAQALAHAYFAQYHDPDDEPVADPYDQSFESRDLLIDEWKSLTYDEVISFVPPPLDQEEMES

SMILES	inhibition [1] [%]	inhibition [2] [%]	inhibition [3] [%]	inhibition [4] [%]	inhibition [5] [%]
CCN1CCN(Cc2ccc(NC(=O)c3ccc(C)c(Oc4ccnc5[nH]ccc45)c3)cc2C(F)(F)F)CC1	53.3	12.6	-5.6	64.6	14.3
CCN1CCN(Cc2ccc(NC(=O)c3ccc(C)c(/C=C/c4cnc5[nH]ccc5c4OC)c3)cc2C(F)(F)F)CC1	83.3	6.4	6.6	2.6	-3.3
